For assay [1], the target named is T1, HCV polymerase (Hepatitis C virus genotype 1b, UniProt Q9WMX2).
T1 construct: (His)6 (C); made in house; host or cells: XL-1 cells (E. coli, by own knowledge)
Nature of the assay: Polymerase assay of Biological Example 1 (IC50 values of Table 3). The assay is classed as biochemical. The conditions noted are these: IC50 values of Table 3, polymerase assay of Biological Example 1; read-out: NS5B-enzyme3.

Assay [2] deals with HCV replicon I389luc-ubi-neo/NS3-3′/ET in ET (Huh-lucubineo-ET) cells. Nature of the assay: Replicon assay (Biological Example 2), luciferase readout. The class given is cell-based. The note with it: Hepatitis C virus. The method, boiled down:
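EC50 values come from Hill fits of % inhibition of replicon-driven firefly luciferase, relative to no-compound wells. Compounds were serially diluted (10 points, 3-fold, 0.1 nM–50 μM final, 0.5% DMSO) onto ET replicon cells and read after 48 h.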
Background: A replicon is a self-replicating genome or part of one, used to study replication in cells.

[3] abbreviates: ET cells, luciferase activity 48 hours after compound.

Structures are written as SMILES. Bounds are passed on as bounds.

`COC[C@@H]1CCCN1c1ccc(S(=O)(=O)N2CC(=O)N(c3cc(-c4ccc(F)cc4)sc3C(=O)O)[C@H](C3CCCCC3)C2)cn1` [Compound 279, 3-{(R)-2-Cyclohexyl-4-[6-((S)-2-methoxymethyl-pyrrolidin-1-yl)-pyridine-3-sulfonyl]-6-oxo-piperazin-1-yl}-5-(4-fluoro-phenyl)-thiophene-2-carboxylic acid]: the IC50 in assay [1] is 1.1 nM; in assay [2] (setting [3]), no more than 100 nM.
In the same order, the values of `O=C(O)c1sc(-c2ccc(F)cc2)cc1N1C(=O)CN(S(=O)(=O)c2ccc(N3CC[C@@H](F)C3)nc2)C[C@H]1C1CCCCC1` [Compound 280, 3-{(R)-2-Cyclohexyl-4-[6-((R)-3-fluoro-pyrrolidin-1-yl)-pyridine-3-sulfonyl]-6-oxo-piperazin-1-yl}-5-(4-fluoro-phenyl)-thiophene-2-carboxylic acid] are 1 nM and no more than 100 nM.
In the same order, the values of `CC(C)(C)C#Cc1cc(N2C(=O)CN(S(=O)(=O)c3ccc(F)cc3F)C[C@H]2C2CCCCC2)c(C(=O)O)s1` [Compound 281, 3-[(R)-2-Cyclohexyl-4-(2,4-difluoro-benzenesulfonyl)-6-oxo-piperazin-1-yl]-5-(3,3-dimethyl-but-1-ynyl)-thiophene-2-carboxylic acid] are 3 nM and no more than 100 nM.
Regarding `CC(C)(C)C#Cc1cc(N2C(=O)CN(S(=O)(=O)c3c(Cl)cccc3Cl)C[C@H]2C2CCCCC2)c(C(=O)O)s1` [Compound 282, 3-[(R)-2-Cyclohexyl-4-(2,6-dichloro-benzenesulfonyl)-6-oxo-piperazin-1-yl]-5-(3,3-dimethyl-but-1-ynyl)-thiophene-2-carboxylic acid], the IC50 is 31 nM in assay [1]; 100 to 5000 nM in assay [2] (between 100 nM and 5.0 uM).
In the case of `COc1cc(S(=O)(=O)N2CC(=O)N(c3cc(C#CC(C)(C)C)sc3C(=O)O)[C@H](C3CCCCC3)C2)ccc1F` [Compound 283, 3-[(R)-2-Cyclohexyl-4-(4-fluoro-3-methoxy-benzenesulfonyl)-6-oxo-piperazin-1-yl]-5-(3,3-dimethyl-but-1-ynyl)-thiophene-2-carboxylic acid], the values for the IC50 in assay [1] and in assay [2] (setting [3]) were 4 nM and no more than 100 nM, respectively.
In the same order, the values of `Cn1ccc(S(=O)(=O)N2CC(=O)N(c3cc(-c4ccc(Cl)cc4)sc3C(=O)O)[C@H](C3CCCCC3)C2)n1` [Compound 284, 5-(4-Chloro-phenyl)-3-[(R)-2-cyclohexyl-4-(1-methyl-1H-pyrazole-3-sulfonyl)-6-oxo-piperazin-1-yl]-thiophene-2-carboxylic acid] are 3 nM and no more than 100 nM.
`O=C(O)c1sc(-c2ccc(F)cc2)cc1N1C(=O)CN(S(=O)(=O)c2ccc(N3CCCCCC3)nc2)C[C@H]1C1CCCCC1` [Compound 285, 3-[(R)-4-(6-Azepan-1-yl-pyridine-3-sulfonyl)-2-cyclohexyl-6-oxo-piperazin-1-yl]-5-(4-fluoro-phenyl)-thiophene-2-carboxylic acid]: the IC50 was 2 nM in assay [1] and no more than 100 nM in assay [2] (setting [3]).
The matching figures for `O=C(O)c1sc(-c2ccc(F)cc2)cc1N1C(=O)CN(S(=O)(=O)c2ccc(N3CCC(F)(F)C3)nc2)C[C@H]1C1CCCCC1` [Compound 286, 3-{(R)-2-Cyclohexyl-4-[6-(3,3-difluoro-pyrrolidin-1-yl)-pyridine-3-sulfonyl]-6-oxo-piperazin-1-yl}-5-(4-fluoro-phenyl)-thiophene-2-carboxylic acid]: 1 nM and no more than 100 nM.
In the same order, the values of `O=C(O)c1sc(-c2ccc(F)cc2)cc1N1C(=O)CN(S(=O)(=O)c2ccc(N3CC[C@H](F)C3)nc2)C[C@H]1C1CCCCC1` [Compound 287, 3-{(R)-2-Cyclohexyl-4-[6-((S)-3-fluoro-pyrrolidin-1-yl)-pyridine-3-sulfonyl]-6-oxo-piperazin-1-yl}-5-(4-fluoro-phenyl)-thiophene-2-carboxylic acid] are 1 nM and no more than 100 nM.
With `CC1(O)CCN(c2ccc(S(=O)(=O)N3CC(=O)N(c4cc(-c5ccc(F)cc5)sc4C(=O)O)[C@H](C4CCCCC4)C3)cn2)C1` (stereo partly drawn) [Compound 288, 3-{(R)-2-Cyclohexyl-4-[6-(3-hydroxy-3-methyl-pyrrolidin-1-yl)-pyridine-3-sulfonyl]-6-oxo-piperazin-1-yl}-5-(4-fluoro-phenyl)-thiophene-2-carboxylic acid], the IC50 in assay [1] is 2 nM; in assay [2] (setting [3]), no more than 100 nM.
The matching figures for `Cc1ccc(-c2cc(N3C(=O)CN(S(=O)(=O)c4ccc(N5C[C@H]6C[C@@H]5CO6)nc4)C[C@H]3C3CCCCC3)c(C(=O)O)s2)cc1` [Compound 289, 3-{(R)-2-Cyclohexyl-4-[(1R,4R)-6-(2-oxa-5-aza-bicyclo[2.2.1]hept-5-yl)-pyridine-3-sulfonyl]-6-oxo-piperazin-1-yl}-5-p-tolyl-thiophene-2-carboxylic acid]: 1 nM and no more than 100 nM.
`CC(C)(C)C#Cc1cc(N2C(=O)C(C)(C)OC[C@H]2C2CCCCC2)c(C(=O)O)s1` [Compound 290, 3-((R)-5-Cyclohexyl-2,2-dimethyl-3-oxomorpholin-4-yl)-5-(3,3-dimethyl-but-1-ynyl)-thiophene-2-carboxylic acid]: the IC50 is 2 nM in assay [1] and no more than 100 nM in assay [2] (setting [3]).
Take `C[C@H]1OCC(=O)N(c2cc(C#CC(C)(C)C)sc2C(=O)O)[C@@H]1C1CCCCC1` [Compound 291, 3-((2R,3R)-3-Cyclohexyl-2-methyl-5-oxo-morpholin-4-yl)-5-(3,3-dimethyl-but-1-ynyl)-thiophene-2-carboxylic acid]: the IC50 in assay [1] is 8 nM; in assay [2] (setting [3]), no more than 100 nM.
For the molecule `CC1(C)CCN(c2ccc(S(=O)(=O)N3CC(=O)N(c4cc(-c5ccc(Cl)cc5)sc4C(=O)O)[C@H](C4CCCCC4)C3)cn2)C1` [Compound 292, 5-(4-Chloro-phenyl)-3-{(R)-2-cyclohexyl-4-[6-(3,3-dimethyl-pyrrolidin-1-yl)-pyridine-3-sulfonyl]-6-oxo-piperazin-1-yl}-thiophene-2-carboxylic acid], the IC50 in assay [1] was 2.3 nM; in assay [2] (setting [3]), no more than 100 nM.
As to `O=C(O)c1sc(-c2ccc(Cl)cc2)cc1N1C(=O)COC[C@H]1C1CCCCC1` [Compound 293, 5-(4-Chloro-phenyl)-3-((R)-3-cyclohexyl-5-oxo-morpholin-4-yl)-thiophene-2-carboxylic acid], the IC50 in assay [1] was 5 nM; in assay [2] (between 100 nM and 5.0 uM), 100 to 5000 nM.
In the same order, the values of `CC(C)(C)C#Cc1cc(N2C(=O)C(CC(=O)N3CCOCC3)OC[C@H]2C2CCCCC2)c(C(=O)O)s1` (stereo partly drawn) [Compound 294, 3-[(R)-5-Cyclohexyl-2-(2-morpholin-4-yl-2-oxo-ethyl)-3-oxo-morpholin-4-yl]-5-(3,3-dimethyl-but-1-ynyl)-thiophene-2-carboxylic acid] are 7 nM and 100 to 5000 nM.
Turning to `Cc1ccc(-c2cc(N3C(=O)CN(S(=O)(=O)c4cnn(C)c4)C[C@H]3C3CCCCC3)c(C(=O)O)s2)cc1` [Compound 295, 3-[(R)-2-Cyclohexyl-4-(1-methyl-1H-pyrazole-4-sulfonyl)-6-oxo-piperazin-1-yl]-5-p-tolyl-thiophene-2-carboxylic acid], the results for the IC50 in assay [1] and in assay [2] (setting [3]) were 4 nM and no more than 100 nM, respectively.
In the same order, the values of `CCn1cc(S(=O)(=O)N2CC(=O)N(c3cc(-c4ccc(C)cc4)sc3C(=O)O)[C@H](C3CCCCC3)C2)cn1` [Compound 296, 3-[(R)-2-Cyclohexyl-4-(1-ethyl-1H-pyrazole-4-sulfonyl)-6-oxo-piperazin-1-yl]-5-p-tolyl-thiophene-2-carboxylic acid] are 5 nM and no more than 100 nM.
For `Cc1ccc(-c2cc(N3C(=O)CN(S(=O)(=O)c4cn(C)c(C)n4)C[C@H]3C3CCCCC3)c(C(=O)O)s2)cc1` [Compound 298, 3-[(R)-2-Cyclohexyl-4-(1,2-dimethyl-1H-imidazole-4-sulfonyl)-6-oxo-piperazin-1-yl]-5-p-tolyl-thiophene-2-carboxylic acid], the IC50 in assay [1] is 1 nM; in assay [2] (setting [3]), no more than 100 nM.
Consider `CC(C)(C)C#Cc1cc(N2C(=O)C(CCCO)OC[C@H]2C2CCCCC2)c(C(=O)O)s1` (stereo partly drawn) [Compound 299, 3-[(R)-5-Cyclohexyl-2-(3-hydroxy-propyl)-3-oxo-morpholin-4-yl]-5-(3,3-dimethyl-but-1-ynyl)-thiophene-2-carboxylic acid], for which the values for the IC50 in assay [1] and in assay [2] (setting [3]) were 5 nM and no more than 100 nM, respectively.
With `Cc1ccc(-c2cc(N3C(=O)CN(S(=O)(=O)c4ccc(C(F)(F)F)nc4)C[C@H]3C3CCCCC3)c(C(=O)O)s2)cc1` [Compound 300, 3-[(R)-2-Cyclohexyl-6-oxo-4-(6-trifluoromethyl-pyridine-3-sulfonyl)-piperazin-1-yl]-5-p-tolyl-thiophene-2-carboxylic acid], the IC50 was 31 nM in assay [1]; 100 to 5000 nM in assay [2] (between 100 nM and 5.0 uM).
Turning to `Cc1ccc(-c2cc(N3C(=O)CN(S(=O)(=O)c4cnn(CC(C)C)c4)C[C@H]3C3CCCCC3)c(C(=O)O)s2)cc1` [Compound 301, 3-[(R)-2-Cyclohexyl-4-(1-isobutyl-1H-pyrazole-4-sulfonyl)-6-oxo-piperazin-1-yl]-5-p-tolyl-thiophene-2-carboxylic acid], the IC50 in assay [1] was 4 nM; in assay [2] (setting [3]), no more than 100 nM.
Take `Cc1ccc(-c2cc(N3C(=O)CN(S(=O)(=O)c4ccc(C)nc4)C[C@H]3C3CCCCC3)c(C(=O)O)s2)cc1` [Compound 302, 3-[(R)-2-Cyclohexyl-4-(6-methyl-pyridine-3-sulfonyl)-6-oxo-piperazin-1-yl]-5-p-tolyl-thiophene-2-carboxylic acid]: the IC50 is 3 nM in assay [1] and no more than 100 nM in assay [2] (setting [3]).
The matching figures for `Cc1ccc(-c2cc(N3C(=O)CN(S(=O)(=O)c4ccc(C(C)(C)C)nc4)C[C@H]3C3CCCCC3)c(C(=O)O)s2)cc1` [Compound 303, 3-[(R)-4-(6-tert-Butyl-pyridine-3-sulfonyl)-2-cyclohexyl-6-oxo-piperazin-1-yl]-5-p-tolyl-thiophene-2-carboxylic acid]: 4 nM and no more than 100 nM.

The values above are taken from patent US9498483B2, “2,3,5-trisubstituted thiophene compounds and uses thereof” (priority 2010, dated 2016).
